Here are results for one molecule from PMC6576746, “Rational discovery of dual-indication multi-target PDE/Kinase inhibitor for precision anti-cancer therapy using structural systems pharmacology” (PLoS Computational Biology, 2019).

What all share (experiment): biochemical
Set-up in all cases: DiscoverX KinomeScan competition binding assay across human kinases; per cent of control at 10 and 100 uM

One test addresses CLK2 (Homo sapiens, UniProt P49760). The settings on record: competition binding, % of control; read-out: Percent Control (100 uM Levosimendan). In outline: (§1)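 KinomeScan competition binding was run across a human kinase panel at 10 μM and 100 μM levosimendan. Results are %control = (test − positive control)/(negative control − positive control) × 100.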
Another test addresses STK33 (Homo sapiens, UniProt Q9BYT3). As to conditions: competition binding, % of control; read-out: Percent Control (100 uM Levosimendan). In a few lines: as §1
The target in the next test is BMPR1B (Homo sapiens, UniProt O00238). As to conditions: competition binding, % of control. In a few lines: as §1
BMPR1B, sequence (O00238 whole entry): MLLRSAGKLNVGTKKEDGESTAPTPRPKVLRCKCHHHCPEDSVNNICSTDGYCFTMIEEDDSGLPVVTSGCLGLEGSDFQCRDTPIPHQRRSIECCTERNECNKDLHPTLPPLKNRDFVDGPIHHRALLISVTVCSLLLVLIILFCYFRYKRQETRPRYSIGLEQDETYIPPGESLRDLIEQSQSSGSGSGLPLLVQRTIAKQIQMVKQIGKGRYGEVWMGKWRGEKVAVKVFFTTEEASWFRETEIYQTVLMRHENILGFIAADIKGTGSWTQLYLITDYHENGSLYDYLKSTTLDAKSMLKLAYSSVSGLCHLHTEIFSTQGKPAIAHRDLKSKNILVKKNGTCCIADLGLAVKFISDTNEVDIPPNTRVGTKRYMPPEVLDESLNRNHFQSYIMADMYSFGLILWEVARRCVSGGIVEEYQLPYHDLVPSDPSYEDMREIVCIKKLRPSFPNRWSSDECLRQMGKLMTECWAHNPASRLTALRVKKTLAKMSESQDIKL
The next test concerns the target PRKD2 (Homo sapiens, UniProt Q9BZL6). The settings on record: competition binding, % of control; read-out: Percent Control (100 uM Levosimendan). In outline: as §1
A further test deals with DYRK1A (Homo sapiens, UniProt Q13627). As to conditions: competition binding, % of control; read-out: Percent Control (100 uM Levosimendan). In outline:
as §1

Another test has as its target GSK3B (Homo sapiens, UniProt P49841). As to conditions: competition binding, % of control; read-out: Percent Control (100 uM Levosimendan). In a few lines:
as §1

In the next test the target is T1, DCAMKL2 (Homo sapiens, UniProt Q8N568).
T1 construct: gene DCLK2
As to conditions: competition binding, % of control; read-out: Percent Control (100 uM Levosimendan). In a few lines:
as §1

The next test addresses T2, TAK1 (Homo sapiens, UniProt O43318).
T2 construct: gene MAP3K7
The settings on record: competition binding, % of control; read-out: Percent Control (100 uM Levosimendan). In outline:
as §1

Another test deals with CDK5 (Homo sapiens, UniProt Q00535). The settings on record: competition binding, % of control; read-out: Percent Control (100 uM Levosimendan). In a few lines: as §1
The next test deals with LYN (Homo sapiens, UniProt P07948). The settings on record: competition binding, % of control; read-out: Percent Control (100 uM Levosimendan). In a few lines:
as §1

The target in the next test is DYRK1B (Homo sapiens, UniProt Q9Y463). As to conditions: competition binding, % of control; read-out: Percent Control (100 uM Levosimendan). In outline: as §1
For another test, the target named is VRK2 (Homo sapiens, UniProt Q86Y07). The settings on record: competition binding, % of control; read-out: Percent Control (100 uM Levosimendan). In outline:
as §1

Another test addresses INSRR (Homo sapiens, UniProt P14616). As to conditions: competition binding, % of control; read-out: Percent Control (100 uM Levosimendan). In a few lines: as §1
The target in another test is EGFR(L858R) (Homo sapiens, UniProt P00533, L858R). As to conditions: competition binding, % of control; read-out: Percent Control (100 uM Levosimendan). In a few lines:
as §1

A further test addresses FGFR3 (Homo sapiens, UniProt P22607). As to conditions: competition binding, % of control; read-out: Percent Control (100 uM Levosimendan). In outline: as §1
A further test deals with PRKX (Homo sapiens, UniProt P51817). As to conditions: competition binding, % of control; read-out: Percent Control (100 uM Levosimendan). In outline:
as §1

The target in the next test is SNRK (Homo sapiens, UniProt Q9NRH2). As to conditions: competition binding, % of control; read-out: Percent Control (100 uM Levosimendan). In a few lines: as §1
For another test, the target named is T3, SIK (Homo sapiens, UniProt P57059).
T3 construct: gene SIK1
As to conditions: competition binding, % of control; read-out: Percent Control (100 uM Levosimendan). In outline:
as §1

The next test concerns the target DMPK (Homo sapiens, UniProt Q09013). As to conditions: competition binding, % of control. In a few lines: as §1
Where [1] appears, read: read-out: Percent Control (10 uM Levosimendan).
Setting [2] is: read-out: Percent Control (100 uM Levosimendan).

DMPK, sequence (Q09013 whole entry): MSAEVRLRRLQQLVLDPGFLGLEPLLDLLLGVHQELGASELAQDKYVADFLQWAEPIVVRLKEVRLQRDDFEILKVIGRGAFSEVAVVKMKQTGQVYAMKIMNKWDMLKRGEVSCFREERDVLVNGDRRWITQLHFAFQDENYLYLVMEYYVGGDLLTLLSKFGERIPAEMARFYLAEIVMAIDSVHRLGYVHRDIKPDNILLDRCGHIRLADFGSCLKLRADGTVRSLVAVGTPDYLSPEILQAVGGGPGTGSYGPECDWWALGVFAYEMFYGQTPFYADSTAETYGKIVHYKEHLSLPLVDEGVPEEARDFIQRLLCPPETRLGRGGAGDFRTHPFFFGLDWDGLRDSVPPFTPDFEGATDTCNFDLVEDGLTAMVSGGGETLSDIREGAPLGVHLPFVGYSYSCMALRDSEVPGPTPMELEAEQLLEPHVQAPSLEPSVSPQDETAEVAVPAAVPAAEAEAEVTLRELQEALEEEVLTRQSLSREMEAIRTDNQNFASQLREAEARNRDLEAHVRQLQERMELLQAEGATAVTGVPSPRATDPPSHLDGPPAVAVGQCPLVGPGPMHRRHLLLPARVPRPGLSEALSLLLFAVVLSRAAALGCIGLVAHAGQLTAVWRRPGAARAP
EGFR(L858R), sequence (P00533 whole entry L858R): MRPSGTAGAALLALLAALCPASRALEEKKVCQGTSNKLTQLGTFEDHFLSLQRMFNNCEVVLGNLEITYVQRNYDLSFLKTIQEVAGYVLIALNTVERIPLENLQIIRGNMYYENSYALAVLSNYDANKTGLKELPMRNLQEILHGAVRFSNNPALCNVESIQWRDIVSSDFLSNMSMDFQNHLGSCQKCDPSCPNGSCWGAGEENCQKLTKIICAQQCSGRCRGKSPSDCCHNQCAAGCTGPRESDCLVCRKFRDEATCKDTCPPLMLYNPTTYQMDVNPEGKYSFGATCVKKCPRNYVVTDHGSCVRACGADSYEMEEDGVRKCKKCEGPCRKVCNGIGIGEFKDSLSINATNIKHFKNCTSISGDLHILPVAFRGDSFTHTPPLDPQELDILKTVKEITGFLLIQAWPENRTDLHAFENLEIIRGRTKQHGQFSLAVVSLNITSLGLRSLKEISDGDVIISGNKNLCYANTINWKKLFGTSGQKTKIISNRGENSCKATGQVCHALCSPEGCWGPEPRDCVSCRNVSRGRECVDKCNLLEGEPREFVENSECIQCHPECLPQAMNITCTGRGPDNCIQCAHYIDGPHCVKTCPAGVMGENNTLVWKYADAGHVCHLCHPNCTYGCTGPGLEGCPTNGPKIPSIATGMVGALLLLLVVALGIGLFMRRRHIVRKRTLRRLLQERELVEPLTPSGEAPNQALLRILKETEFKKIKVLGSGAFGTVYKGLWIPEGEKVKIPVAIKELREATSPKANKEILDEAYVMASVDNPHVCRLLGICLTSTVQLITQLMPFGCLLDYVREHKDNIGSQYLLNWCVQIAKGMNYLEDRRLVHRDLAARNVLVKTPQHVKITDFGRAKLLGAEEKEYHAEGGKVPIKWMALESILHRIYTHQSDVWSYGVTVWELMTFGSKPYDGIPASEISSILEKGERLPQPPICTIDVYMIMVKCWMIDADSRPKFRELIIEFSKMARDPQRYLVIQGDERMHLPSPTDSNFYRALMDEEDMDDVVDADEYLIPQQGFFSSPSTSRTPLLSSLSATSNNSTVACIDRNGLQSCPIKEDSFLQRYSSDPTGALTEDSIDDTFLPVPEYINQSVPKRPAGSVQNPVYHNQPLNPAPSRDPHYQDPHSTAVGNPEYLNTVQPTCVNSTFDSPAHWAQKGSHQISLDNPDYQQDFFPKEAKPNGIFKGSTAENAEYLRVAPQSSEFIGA
PRKD2, sequence (Q9BZL6 whole entry): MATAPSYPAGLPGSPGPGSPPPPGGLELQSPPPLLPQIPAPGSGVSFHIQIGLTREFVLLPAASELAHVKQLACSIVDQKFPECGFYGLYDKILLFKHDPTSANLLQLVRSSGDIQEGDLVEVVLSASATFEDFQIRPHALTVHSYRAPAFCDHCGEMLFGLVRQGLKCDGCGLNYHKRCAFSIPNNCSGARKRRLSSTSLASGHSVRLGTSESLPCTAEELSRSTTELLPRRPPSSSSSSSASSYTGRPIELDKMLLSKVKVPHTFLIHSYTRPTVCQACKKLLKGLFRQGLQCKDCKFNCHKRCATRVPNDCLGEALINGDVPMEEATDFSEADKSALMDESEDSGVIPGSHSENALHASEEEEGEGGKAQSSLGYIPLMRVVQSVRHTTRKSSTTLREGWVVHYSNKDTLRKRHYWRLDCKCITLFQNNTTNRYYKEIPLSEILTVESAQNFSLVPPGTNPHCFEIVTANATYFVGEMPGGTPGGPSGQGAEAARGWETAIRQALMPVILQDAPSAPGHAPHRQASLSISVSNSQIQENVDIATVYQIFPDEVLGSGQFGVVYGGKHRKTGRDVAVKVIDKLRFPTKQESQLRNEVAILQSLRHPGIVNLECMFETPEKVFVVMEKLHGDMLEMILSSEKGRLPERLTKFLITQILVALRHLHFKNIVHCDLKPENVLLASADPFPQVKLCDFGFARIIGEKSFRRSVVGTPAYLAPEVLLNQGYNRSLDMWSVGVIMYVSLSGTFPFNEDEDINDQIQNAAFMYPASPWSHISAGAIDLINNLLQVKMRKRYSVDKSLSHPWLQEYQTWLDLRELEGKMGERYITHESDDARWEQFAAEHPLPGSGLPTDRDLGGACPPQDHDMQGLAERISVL
T2 sequence (O43318 whole entry): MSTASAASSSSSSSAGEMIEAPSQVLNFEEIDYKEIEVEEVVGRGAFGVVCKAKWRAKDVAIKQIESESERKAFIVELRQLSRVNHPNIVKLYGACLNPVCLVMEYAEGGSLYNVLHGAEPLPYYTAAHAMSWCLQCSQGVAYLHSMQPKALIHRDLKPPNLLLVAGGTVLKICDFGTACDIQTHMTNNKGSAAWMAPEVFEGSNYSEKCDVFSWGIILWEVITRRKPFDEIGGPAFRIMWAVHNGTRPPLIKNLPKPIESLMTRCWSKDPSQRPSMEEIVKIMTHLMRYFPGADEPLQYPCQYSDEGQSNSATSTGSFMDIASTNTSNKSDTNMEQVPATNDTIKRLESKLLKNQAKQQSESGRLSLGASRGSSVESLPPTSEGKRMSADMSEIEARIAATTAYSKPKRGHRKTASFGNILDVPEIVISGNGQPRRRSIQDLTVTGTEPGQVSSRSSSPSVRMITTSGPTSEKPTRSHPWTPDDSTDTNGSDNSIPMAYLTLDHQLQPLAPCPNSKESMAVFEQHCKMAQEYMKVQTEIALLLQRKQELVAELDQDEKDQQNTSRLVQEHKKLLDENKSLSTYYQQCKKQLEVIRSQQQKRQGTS
CLK2, sequence (P49760 whole entry): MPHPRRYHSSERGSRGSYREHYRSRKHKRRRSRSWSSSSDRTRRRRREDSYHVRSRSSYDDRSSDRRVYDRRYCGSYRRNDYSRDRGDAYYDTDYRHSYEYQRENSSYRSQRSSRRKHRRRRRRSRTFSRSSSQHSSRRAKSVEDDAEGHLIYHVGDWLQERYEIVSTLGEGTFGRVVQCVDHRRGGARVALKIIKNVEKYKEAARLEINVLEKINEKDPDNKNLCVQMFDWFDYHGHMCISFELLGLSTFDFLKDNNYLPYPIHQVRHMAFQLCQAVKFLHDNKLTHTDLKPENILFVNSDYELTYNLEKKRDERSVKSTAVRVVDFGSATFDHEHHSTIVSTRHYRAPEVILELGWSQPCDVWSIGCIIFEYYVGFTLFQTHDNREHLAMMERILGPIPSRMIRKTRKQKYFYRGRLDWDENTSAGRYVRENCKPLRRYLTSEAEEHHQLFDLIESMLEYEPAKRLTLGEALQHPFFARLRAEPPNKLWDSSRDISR
STK33, sequence (Q9BYT3 whole entry): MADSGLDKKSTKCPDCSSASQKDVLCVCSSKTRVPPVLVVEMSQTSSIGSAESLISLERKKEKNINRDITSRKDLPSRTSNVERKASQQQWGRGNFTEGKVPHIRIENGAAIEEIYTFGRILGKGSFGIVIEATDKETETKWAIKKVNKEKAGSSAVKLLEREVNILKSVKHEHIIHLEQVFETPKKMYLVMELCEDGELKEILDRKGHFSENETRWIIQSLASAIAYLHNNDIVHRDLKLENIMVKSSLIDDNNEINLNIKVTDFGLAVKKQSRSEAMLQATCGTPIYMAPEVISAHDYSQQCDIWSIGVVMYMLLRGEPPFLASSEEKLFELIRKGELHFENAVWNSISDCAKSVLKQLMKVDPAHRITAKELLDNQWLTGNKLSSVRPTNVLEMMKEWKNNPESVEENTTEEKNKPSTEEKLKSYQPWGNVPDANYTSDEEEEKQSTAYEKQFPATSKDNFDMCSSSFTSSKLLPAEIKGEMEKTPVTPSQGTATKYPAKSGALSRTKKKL

`C[C@@H]1CC(=O)NN=C1c1ccc(NN=C(C#N)C#N)cc1` [levosimendan]: the remaining binding at 100 µM was 69% at CLK2; 100% on STK33; 36% at BMPR1B (setting [2]); 75% at PRKD2; 89% at DYRK1A; 100% at GSK3B. The remaining binding at 100 µM on DCAMKL2 stood at 100%; on TAK1 it was 78%; at CDK5, 100%; on LYN, 69%; at DYRK1B, 100%; on VRK2 it was 69%. Also, the remaining binding at 100 µM at INSRR was determined as 96%; at EGFR(L858R), 63%; on FGFR3, 71%; at PRKX, 76%; on SNRK, 100%; on SIK it was 59%. Moreover, the remaining binding at 100 µM on DMPK (setting [2]) was found to be 29%. Further, the remaining binding at 10 µM on BMPR1B (setting [1]) came out at 82%; at DMPK (setting [1]), 100%.
